Measured values taken from patent publication US7087768B2, “Fumagillol derivatives and preparing method thereof” (Equispharm Co., Ltd., priority 2001, dated 2006).
Values after ≈ are worked out from the molar mass of the structure shown.

Test system: HUVECs (human umbilical vein endothelial cells)
Experiment: Inhibitory effect of fumagillol derivative on HUVEC cell growth (colorimetry)
Assay type: cell-based
Settings: Homo sapiens, HUVEC, HUVEC growth, cultured 2–3 days with compound, absorption at 490 nm; read-out: IC50
Procedure: Using the HUVECs (human umbilical vein endothelial), the effect of the fumagillol derivative of the present invention on cell growth was evaluated.
The HUVECs were added to M199 medium supplemented with 20% FBS (fetal bovine serum), 100 U/ml penicillin, 100 μg/ml streptomycin, 1.5 g/L sodium bicarbonate, 0.1 mg/ml endothelial cell growth supplement (Sigma) and 0.1 mg/ml heparin (Sigma), after which the cells were incubated in an incubator at 37° C. under 5% CO2. Cells were subcultured a maximum of 8 times before being discarded.
In order to evaluate inhibitory activity of the fumagillin derivative on growth of HUVECs, the inventive compound was dissolved in DMSO and its concentration was adjusted from 10 mM to 1 mM. Cells were aliquotted to 96 well plates at a density of 2×10^3 cells per well and incubated for about 12–24 hours to be properly attached to the plate. Thereafter, the medium was replaced with new medium. The cells were treated with the compound obtained from each of the above examples at various concentration ranges of from 10 μM to […], and cultured for 2–3 days, followed by removing 100 μl of the medium from each well.
Colorimetry was performed to determine the extent of cell growth. The cells on each plate was added with 20 μl of aqueous one solution and then incubated at 37° C. under 5% CO2 for 2 hours. Using a 96-well plate reader, absorption was measured at 490 nm.
As such, a conventional TNP-470 having angiogenesis inhibitory effect was used as a control.

SMILES | IC50 [ng/mL]
CC/C=C(C)/C=C/CNCC(=O)O[C@@H]1CC[C@]2(CO2)[C@@H]([C@@]2(C)OC2CC=C(C)C)[C@@H]1OC (stereo partly shown) [Ex. 57, 6-O-(4-methyl-hepta-2,4-dienylamino)acetyl fumagillol] | 420 (≈ 938 nM)
COc1ccc(NCC(=O)O[C@@H]2CC[C@]3(CO3)[C@@H]([C@@]3(C)OC3CC=C(C)C)[C@@H]2OC)cc1 (stereo partly shown) [Ex. 1, 6-O-(4-methoxyaniline)acetyl fumagillol] | 0.0071 (≈ 0.0159 nM)
CO[C@@H]1[C@H](OC(=O)CNC#CCl)CC[C@]2(CO2)[C@H]1[C@@]1(C)OC1CC=C(C)C (stereo partly shown) [Ex. 62, 6-O-(chloroethynylamino)acetyl fumagillol] | 340 (≈ 854 nM)
CO[C@@H]1[C@H](OC(=O)CCl)CC[C@]2(CO2)[C@H]1[C@@]1(C)OC1CC=C(C)C (stereo partly shown) [Intermediate, 6-O-(chloro)acetyl fumagillol] | 2000 (≈ 5570 nM)
CO[C@@H]1[C@H](OC(=O)CNc2ccc(N)cc2)CC[C@]2(CO2)[C@H]1[C@@]1(C)OC1CC=C(C)C (stereo partly shown) [Ex. 22, 6-O-(4-aminoaniline)acetyl fumagillol] | 179 (≈ 416 nM)
CO[C@@H]1[C@H](OC(=O)CNc2ccc(C#N)cc2)CC[C@]2(CO2)[C@H]1[C@@]1(C)OC1CC=C(C)C (stereo partly shown) [Ex. 34, 6-O-(4-cyanoaniline)acetyl fumagillol] | 98 (≈ 222 nM)
CO[C@@H]1[C@H](OC(=O)CNc2ccc(OCCOC(C)=O)cc2)CC[C@]2(CO2)[C@H]1[C@@]1(C)OC1CC=C(C)C (stereo partly shown) [Ex. 8, 6-O-(4-(2-acetoxyethoxy)aniline)acetyl fumagillol] | 42 (≈ 81.1 nM)
CCCOc1ccc(NCC(=O)O[C@@H]2CC[C@]3(CO3)[C@@H]([C@@]3(C)OC3CC=C(C)C)[C@@H]2OC)cc1 (stereo partly shown) [Ex. 17, 6-O-(4-propyloxyaniline)acetyl fumagillol] | 0.61 (≈ 1.29 nM)
CCNCC(=O)O[C@@H]1CC[C@]2(CO2)[C@@H]([C@@]2(C)OC2CC=C(C)C)[C@@H]1OC (stereo partly shown) [Ex. 41, 6-O-(ethylamino)acetyl fumagillol] | 20 (≈ 54.4 nM)
COC(=O)C(C)NCC(=O)O[C@@H]1CC[C@]2(CO2)[C@@H]([C@@]2(C)OC2CC=C(C)C)[C@@H]1OC (stereo partly shown) [Ex. 74, 6-O-(alaninemethylesteramino)acetyl fumagillol] | 800 (≈ 1880 nM)
CCC(C)C(C)NCC(=O)O[C@@H]1CC[C@]2(CO2)[C@@H]([C@@]2(C)OC2CC=C(C)C)[C@@H]1OC (stereo partly shown) [Ex. 52, 6-O-(1,2-dimethylbutylamino)acetyl fumagillol] | 290 (≈ 685 nM)
CO[C@@H]1[C@H](OC(=O)CNc2ccc([N+](=O)[O-])cc2)CC[C@]2(CO2)[C@H]1[C@@]1(C)OC1CC=C(C)C (stereo partly shown) [Ex. 24, 6-O-(4-nitroaniline)acetyl fumagillol] | 181 (≈ 393 nM)
CCCNCC(=O)O[C@@H]1CC[C@]2(CO2)[C@@H]([C@@]2(C)OC2CC=C(C)C)[C@@H]1OC (stereo partly shown) [Ex. 43, 6-O-(propylamino)acetyl fumagillol] | 2400 (≈ 6290 nM)
COc1c(C)cc(NCC(=O)O[C@@H]2CC[C@]3(CO3)[C@@H]([C@@]3(C)OC3CC=C(C)C)[C@@H]2OC)cc1C (stereo partly shown) [Ex. 15, 6-O-(3,5-dimethyl-4-methoxyaniline)acetyl fumagillol] | 0.06 (≈ 0.127 nM)
COC(CNCC(=O)O[C@@H]1CC[C@]2(CO2)[C@@H]([C@@]2(C)OC2CC=C(C)C)[C@@H]1OC)OC (stereo partly shown) [Ex. 77, 6-O-(2,2-dimethoxyethylamino)acetyl fumagillol] | 330 (≈ 772 nM)
CCCCCNCC(=O)O[C@@H]1CC[C@]2(CO2)[C@@H]([C@@]2(C)OC2CC=C(C)C)[C@@H]1OC (stereo partly shown) [Ex. 48, 6-O-(pentylamino)acetyl fumagillol] | 3000 (≈ 7320 nM)

Same assay, conditions: Homo sapiens; HUVEC growth, cultured 2–3 days with compound, absorption at 490 nm; read-out: IC50

SMILES | IC50 [ng/mL]
COc1ccc(NCC(=O)O[C@@H]2CC[C@]3(CO3)[C@@H]([C@@]3(C)OC3CC=C(C)C)[C@@H]2OC)cc1OC (stereo partly shown) [Ex. 4, 6-O-(3,4-dimethoxyaniline)acetyl fumagillol] | 0.08 (≈ 0.168 nM)
CO[C@@H]1[C@H](OC(=O)CNc2ccc(N(C)C)cc2)CC[C@]2(CO2)[C@H]1[C@@]1(C)OC1CC=C(C)C (stereo partly shown) [Ex. 20, 6-O-(4-dimethylaminoaniline)acetyl fumagillol] | 162 (≈ 353 nM)

Same assay, conditions: relative to TNP-470

SMILES | inhibitory effect on HUVEC, times greater than TNP-470 [times]
COc1ccc(NCC(=O)O[C@@H]2CC[C@]3(CO3)[C@@H]([C@@]3(C)OC3CC=C(C)C)[C@@H]2OC)cc1 (stereo partly shown) [Ex. 1, 6-O-(4-methoxyaniline)acetyl fumagillol] | 2000
